{"source": "patent US20090239827A1", "about": "“COMPOUNDS HAVING LIPID LOWERING PROPERTIES” (priority 2005, published 2009)", "key": {"APOE deficient mice [1]": {"test_system": "APOE deficient mice", "assay": "Example 2: plasma lipid levels in APOE deficient mice, compound in feed, induction and challenge phases", "type": "in vivo, mouse", "method": "(§1) This example evaluated the effects of a tocopheryl phosphate mixture (TPm) (mono-tocopheryl phosphate and di-tocopheryl phosphate) on the development of atherosclerotic lesions in male APOE deficient mice.\n(§2) Twenty-eight mice were divided into 4 groups: 2 control groups, a tocopherol acetate (TA) group (150 mg TA/kg feed) and a TPm group (200 mg TPm/kg feed containing 7% fat).\n‘Induction phase’—The induction phase consisted of the first 16 weeks of the treatment period.\n‘Challenge phase’—This phase consisted of the final 8 weeks of the treatment period.\nThe 4 groups of animals were placed on the diet regimes outlined in the table below:\nOf the two control animal groups only one was placed on the SF04-055, HFHC diet, while the other control group was maintained on the SF05-040 mouse pellet diet (only 7% fat) for the entire treatment period 24 week treatment period (C24). […] TA treated mice were fed pellets with 150 mg TA/kg feed and TPm treated mice were fed the pellets with 200 mg TPm/kg feed. […] The 26 mg/kg TPm dose was calculated to be the tocopherol equivalent to the TA dose."}, "APOE deficient mice [2]": {"test_system": "APOE deficient mice", "assay": "Example 2: aortic atheromatous lesion area by Oil red O staining in APOE deficient mice", "type": "in vivo, mouse", "settings": "end of the 24 week treatment period", "method": "as §1, §2\n‘Induction phase’—The induction phase consisted of the first 16 weeks of the treatment period. During this period the animals were fed a mouse pellet diet low in vitamin E (containing less than 20 mg vitamin E per kg food, with a 7% total fat; modified version of the standard AIN93G rodent diet (SF05-040, Specialty feeds, Glen Forrest, Wash. Australia). Control animals were fed the diet alone, while TA-feed contained 150 mg TA/kg feed and TPm-feed contained 200 mg TPm/kg feed. These feeds delivered on average doses of 21 and 26 mg/kg body weight, respectively. The 26 mg/kg TPm dose was calculated to be the tocopherol equivalence of the TA dose. […]\nOf the two control animal groups only one was placed on the SF04-055, HFHC diet, while the other control group was maintained on the SF05-040 mouse pellet diet (only 7% fat) for the entire treatment period 24 week treatment period (C24). […] The 26 mg/kg TPm dose was calculated to be the tocopherol equivalent to the TA dose. […]"}, "[3]": {"settings": "Challenge phase (HFHC diet), week 24, TA 150 mg/kg feed, TPm 200 mg/kg feed"}, "[4]": {"settings": "Induction phase, week 16, TA 150 mg/kg feed, TPm 200 mg/kg feed"}}, "note": "Where “and” joins values, the source holds several entries; their conditions need not be identical. Identical values can stand only once."}
{"compound": "CC(=O)Oc1c(C)c(C)c2c(c1C)CCC(C)(CCC[C@H](C)CCC[C@H](C)CCCC(C)C)O2", "note": "(stereo partly drawn) [TA, Tocopherol Acetate]", "values": [{"measurement": "LDL-C level (mean ± SD)", "setting": "APOE deficient mice [1]; Baseline, week 0", "result": "8.85 ± 1.66", "unit": "mmol/L"}, {"measurement": "total cholesterol level (mean ± SD)", "setting": "APOE deficient mice [1]; Baseline, week 0", "result": "12.75 ± 1.41", "unit": "mmol/L"}, {"measurement": "triglyceride level (mean ± SD)", "setting": "APOE deficient mice [1]; Baseline, week 0", "result": "1.75 ± 0.25", "unit": "mmol/L"}, {"measurement": "LDL-C level (mean ± SD)", "setting": "APOE deficient mice [1]; [3]", "result": "18.98 ± 2.29", "unit": "mmol/L"}, {"measurement": "total cholesterol level (mean ± SD)", "setting": "APOE deficient mice [1]; [3]", "result": "47.13 ± 4.44", "unit": "mmol/L"}, {"measurement": "triglyceride level (mean ± SD)", "setting": "APOE deficient mice [1]; [3]", "result": "2.23 ± 0.29", "unit": "mmol/L"}, {"measurement": "LDL-C level (mean ± SD)", "setting": "APOE deficient mice [1]; [4]", "result": "6.51 ± 0.71", "unit": "mmol/L"}, {"measurement": "total cholesterol level (mean ± SD)", "setting": "APOE deficient mice [1]; [4]", "result": "14.47 ± 1.32", "unit": "mmol/L"}, {"measurement": "triglyceride level (mean ± SD)", "setting": "APOE deficient mice [1]; [4]", "result": "1.30 ± 0.22", "unit": "mmol/L"}, {"measurement": "reduction in plasma lipid levels", "setting": "APOE deficient mice [1]; after the challenge phase (week 24)", "result": "no significant reduction"}, {"measurement": "reduction in aortic lesion area / lesion formation compared to control mice on the same diet regime", "setting": "APOE deficient mice [2]", "result": 12, "unit": "%"}, {"measurement": "Atheromatous lesion area, % Lesion coverage (mean ± SD)", "setting": "APOE deficient mice [2]; HFHC diet final 8 weeks", "result": "9.4% and 9.4 ± 1.1%"}]}
